Values of other authors in patent US6183992A, “Method for mass production of antimicrobial peptide” (Samyang Genex Corporation, priority 1997, dated 2001).
Ends that are not written are not given here.

settings: Table 1, excerpted from Peptide Science, Vol 37, 105-122 (1995)

Row | Compound | pI
1 | CC[C@H](C)[C@H](N)C(=O)N[C@@H](CC(C)C)C(=O)N1CCC[C@H]1C(=O)N[C@@H](Cc1c[nH]c2ccccc12)C(=O)N[C@@H](CCCCN)C(=O)N[C@@H](Cc1c[nH]c2ccccc12)C(=O)N1CCC[C@H]1C(=O)N[C@@H](Cc1c[nH]c2ccccc12)C(=O)N[C@@H](Cc1c[nH]c2ccccc12)C(=O)N1CCC[C@H]1C(=O)N[C@@H](Cc1c[nH]c2ccccc12)C(=O)N[C@@H](CCCNC(=N)N)C(=O)N[C@@H](CCCNC(=N)N)C(N)=O [Indolicidin] | 12.51
2 | CC[C@H](C)[C@H](NC(=O)CN)C(=O)NCC(=O)N[C@@H](C)C(=O)N[C@H](C(=O)N[C@@H](CC(C)C)C(=O)N[C@@H](CCCCN)C(=O)N[C@H](C(=O)N[C@@H](CC(C)C)C(=O)N[C@H](C(=O)N[C@H](C(=O)NCC(=O)N[C@@H](CC(C)C)C(=O)N1CCC[C@H]1C(=O)N[C@@H](C)C(=O)N[C@@H](CC(C)C)C(=O)N[C@H](C(=O)N[C@@H](CO)C(=O)N[C@@H](Cc1c[nH]c2ccccc12)C(=O)N[C@H](C(=O)N[C@@H](CCCCN)C(=O)N[C@@H](CCCNC(=N)N)C(=O)N[C@@H](CCCCN)C(=O)N[C@@H](CCCNC(=N)N)C(=O)N[C@@H](CCC(N)=O)C(=O)N[C@@H](CCC(N)=O)C(N)=O)[C@@H](C)CC)[C@@H](C)CC)[C@@H](C)O)[C@@H](C)O)C(C)C)C(C)C [Melittin] | 12.53
3 | Apidaecin I | 12.21
4 | Bombinin | 10.34
5 | HNP-I [HNP1] | 8.28

Now from value to compound:

Row | pI | Compound
6 | 10.89 | Cercropin A [Ceropin A]
7 | 12.22 | GKPRPYSPRPTSHPRPIRV [Drosocin]
8 | 11.41 | Magainin (MSI-344)
9 | 10.01 | Tachyplesin I
